Reference: publication PMC3165048 (Chemistry & biology, 2010)
≈ marks a conversion by molar mass, not a printed value.

What was measured:
MtMetAP1a = MtMetAP1a (Mycobacterium tuberculosis, UniProt P9WK20); experiment: Coupled methionine-proline aminopeptidase enzymatic assay; assay type: biochemical; conditions: […] CoCl2, 600 µM Met-Pro-pNA, 20 min pre-incubation
MtMetAP1c = MtMetAP1c (Mycobacterium tuberculosis, UniProt P9WK18); experiment: biochemical; conditions: […] CoCl2, 600 µM Met-Pro-pNA, 20 min pre-incubation
Sequence of MtMetAP1c (P9WK18 whole entry): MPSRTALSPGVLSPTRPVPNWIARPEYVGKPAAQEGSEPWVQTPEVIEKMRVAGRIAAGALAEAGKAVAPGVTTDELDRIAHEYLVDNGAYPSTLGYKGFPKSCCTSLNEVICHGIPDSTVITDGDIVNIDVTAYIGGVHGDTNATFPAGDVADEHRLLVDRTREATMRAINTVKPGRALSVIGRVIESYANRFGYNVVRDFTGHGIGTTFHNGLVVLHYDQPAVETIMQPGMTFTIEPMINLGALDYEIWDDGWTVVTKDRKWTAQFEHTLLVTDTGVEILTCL

[1] = test system: Replicating M. tuberculosis; experiment: Minimum inhibitory concentration in replicating M. tuberculosis culture; assay type: cell-based, M. tuberculosis H37Rv
[2] = test system: Aged-cultured (non-replicating) M. tuberculosis; experiment: microbe, parasite or virus in culture; assay type: cell-based, M. tuberculosis H37Ra; conditions: Mycobacterium tuberculosis, read-out: M.I.C. Aged-cultured M. tuberculosis

Sequence of MtMetAP1a (P9WK20 whole entry): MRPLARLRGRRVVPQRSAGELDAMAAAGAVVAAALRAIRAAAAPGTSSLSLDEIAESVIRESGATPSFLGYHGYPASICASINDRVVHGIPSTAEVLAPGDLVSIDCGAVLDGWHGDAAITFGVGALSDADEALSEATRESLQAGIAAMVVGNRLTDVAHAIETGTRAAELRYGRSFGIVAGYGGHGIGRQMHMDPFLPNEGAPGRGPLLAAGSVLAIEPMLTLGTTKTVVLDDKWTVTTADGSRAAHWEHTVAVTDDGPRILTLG

## O=C1C(Cl)=C(Cl)C(=O)c2ccccc21 [Compound 4, 2,3-dichloro-1,4-naphthoquinone]
MtMetAP1a
  IC50: 3.3 ± 0.3 µM
MtMetAP1c
  IC50: 6.6 ± 1.2 µM
[1]
  M.I.C. Replicating M. tuberculosis: 10 µg/mL
[2]
  MIC: 5.7 to 11.4 µg/mL (≈ 25.1 to 50.2 µM)
